# Source: a melting point compilation (Tetko et al.; mined from patent text by program, amines drawn as free bases though some values may be those of a salt)
row,melting point,SMILES
1,151 to 154 °C,CN(C)CCNC(=O)c1ccc(OCc2ccc(-c3ccccc3)cc2)nc1
2,74 to 78 °C,CSC(=NC(=O)N(C)C)NC(=O)NC(C)(C)C
3,80 to 81 °C,O=C1CCC(OCc2ccccc2)N1S(=O)(=O)c1ccccc1 (stereo not given)
4,275 to 280 °C,Cc1c2ccccc2c(C(=O)O)c2c(C(=O)O)cccc12
5,138 to 141 °C,CC(=O)c1ccc2c(c1)CCc1ccc(C#N)cc1S2
6,144 °C,COc1cc(C(=O)Nc2c(C)cccc2C)nn1C
7,101 to 105 °C,CNC1CCN(C(=O)CC2=C(n3nc(-c4c(-c5ccccc5)nn5ccccc45)ccc3=O)CCCC2)CC1
8,160 to 162 °C,CC(=O)c1c(C)cc(=O)[nH]c1C
9,71 to 72 °C,COC1=CCC(OC)(OC)C=C1CCc1ccc(OC)cc1C
10,236 to 237 °C,O=C1Nc2ccc(-c3ccc(Cl)cc3)cc2C1=NO
11,96 to 97 °C,C=CCONC(=O)c1c(Cl)nn(C)c1Cl
12,77 to 78 °C,O=C1CCCc2ccc(OCc3cccc(Cl)c3)cc21
13,62 to 63.5 °C,CC(C)(C)C#CC(=O)C#CC(C)(C)C
14,184 to 185 °C,CCCCOc1c(C(=O)O)n(CC(C)(C)C)c(=O)c2cc(F)ccc12
15,215 to 217 °C,NS(=O)(=O)c1ccc(-n2nc(C(F)(F)F)cc2-c2ccc(-c3ncco3)cc2)cc1
16,124 °C,CC(C1CC1)N(CCCc1c[nH]c2ccc(F)cc12)C1COc2c(F)ccc(C(N)=O)c2C1 (stereo not given)
17,155 °C,Cn1c(=O)cc(-c2ccccc2)c2cc(C(c3ccc(Cl)cc3)n3ccnc3)ccc21 (stereo not given)
18,118 to 119 °C,CN(CC#CI)c1nc(CO)cs1
19,155 °C,CCCO[C@@H](C)C(=O)Oc1ccc(-c2ccc(C(=O)O)cc2)cc1
20,168 to 169 °C,COC(=O)C1=C(S(=O)(=O)NC(=O)Nc2nc(OC)nc(OC)n2)CCC1
21,65 to 67 °C,CC(Cc1c[nH]c2ccccc12)(NC(=O)OC(CF)C(F)F)C(=O)NCCc1ccccn1 (stereo not given)
22,217 to 219 °C,O=C(Nc1ccncc1)Nc1c(Cl)cccc1Cl
23,191 to 194 °C,CCOc1cc2ncc(C#N)c(Nc3cccc(C(C)=O)c3)c2cc1OCC
24,74 to 77 °C,CCCCc1nc(-n2cccc2)c(C(=O)OCC)[nH]1
25,174 °C,CNc1nn(C(=O)NC(C)(C)C)c(=O)n1N

row,melting point,SMILES
1,120 to 121 °C,CCCCCCCCCCCc1nc2c(O)c(NC(C)=O)cc(Cl)c2cc1CCCCCCCCCC
2,51 to 53 °C,CN(C1CC(C)(C)NC(C)(C)C1)C1CC(C)(C)NC(C)(C)C1
3,191 to 193 °C,CS(=O)(=O)c1ccc(C(=O)c2cnoc2C2CC2)c(C(F)(F)F)c1S(C)(=O)=O
4,217 to 218 °C,O=C(Nc1n[nH]c(=S)s1)NC(Cc1ccccc1)C(=O)NCc1ccc(C(F)(F)F)cc1 (stereo not given)
5,182 °C,O=C(O)Cn1cc(Cl)c(-c2cc(Cl)cc(Cl)c2)n1
6,59 to 61 °C,Fc1ccc(CCCCN2CCN(c3ncc(F)cn3)CC2)cc1
7,158 to 161 °C,Cc1c(C#N)c(N)n(-c2c(Br)cc(C(F)(F)F)cc2Br)c1C
8,175 °C,CC(C)(C)c1cc(=O)n(-c2c(Cl)cc(C(F)(F)F)cc2Cl)[nH]1
9,185 to 188 °C,O=C1C=CC(O)(c2cc3ccccc3s2)C=C1
10,188 to 190 °C,COc1cc(-c2ccc(-c3ccc(N)c(OC)c3)o2)ccc1N
11,173 to 177 °C,CC1(C)N=C(NC(=O)c2ccco2)N=C(NC(=O)c2ccco2)N1OCc1cccc2ccccc12
12,228 to 229 °C,CS(=O)(=O)c1ccc(-c2cc(C(F)(F)F)nn2-c2ccc(F)cc2)cc1F
13,130 °C,CN(C)c1nc2[nH]c3c(c(=O)n2n1)SCCC3
14,137 °C,COc1ccc(-c2onc3ccc(Br)cc23)cc1
15,104 to 110 °C,Cc1nc2c(OCc3ccccc3)nccn2c1C
16,138 to 140 °C,NCc1ccc(CC(N)=O)cc1
17,170 to 172 °C,CN1CCN(c2ccc(S(=O)(=O)Oc3ccc(F)cc3)cc2)C1=O
18,157 °C,O=c1ccc2c(-c3ccccc3)cc(N3CCN(Cc4ccccc4)CC3)n2cc1
19,57 to 59 °C,CCCCCCCCCCCCCCCCCCOC(=O)COc1ccc(C2C(=O)Oc3c(C)cc(C)cc32)cc1 (stereo not given)
20,196 °C,O=C(O)c1ccc(Cc2cc3cc(Cl)ccc3n2S(=O)(=O)c2ccc3c(c2)OCCO3)s1
21,133 to 136 °C,CC(=O)OCCOC(=O)C1=C(C)NC(C)=C(C(=O)CS(=O)(=O)NC(C)C)C1c1cccc([N+](=O)[O-])c1 (stereo not given)
22,234 to 236 °C,COc1c(F)cc2c(=O)c(C(=O)O)cn3c2c1CCC3C (stereo not given)
23,173 to 174 °C,NCCNc1nc2ccccc2n(-c2ccc(Cl)cc2)c1=O
24,270 to 272 °C,O=c1[nH]c(CCl)nc2cc3c(cc12)CCC3
25,57 to 60 °C,CNC(=S)[C@]1(c2cccnc2)CCCC[C@H]1NOCc1c(F)c(F)c(F)c(F)c1F

row,melting point,SMILES
1,118 to 121 °C,CCCCCCCC(=O)N1CCc2nnc(NN=C(C)C)cc2C1
2,134 to 136 °C,BrCCCCCc1nc2ccccc2[nH]1
3,216 °C,CC1(C)Oc2ccc(C(=O)CO)cc2[C@H](NC(=O)c2ccc(F)cc2)[C@H]1O
4,50 to 51 °C,CCOC(=O)c1cc(OCCOC)c(OCCOC)cc1[N+](=O)[O-]
5,118 °C,CC(C)Cc1ccc(C(=O)O)cc1C#N
6,111 to 112 °C,CCCc1nn(-c2ccc(C(F)(F)F)cn2)cc1CCCCOc1c(CC(=O)O)cccc1OC
7,119 °C,CCOC(=O)NC(=O)n1sc(OCC)nc1=O
8,110 °C,O=C1c2ccc(OCCOCCOCCO)cc2C(=O)c2ccc(OCCOCCOCCO)cc21
9,95 to 96 °C,Cn1nc(-c2ncc(Cl)cc2F)c(Cl)c1OC(F)F
10,131 to 137 °C,CCOC(=O)c1c(Nc2c(C)cccc2C)n[nH]c1C
11,227 to 229 °C,CCC(=O)c1cc2c(c(Cl)c1O)OC(C(=O)O)C2 (stereo not given)
12,86 to 88 °C,Nc1ccc(C2=CCOCC2)c(F)c1
13,118 to 120 °C,O=[N+]([O-])c1cnc2ccc(Cl)cc2c1Cl
14,97 to 99 °C,O[C@@H](COc1cccc(-c2noc3ccsc23)c1)CN1CCN(c2n[nH]c3cc(F)ccc23)CC1
15,41.6 °C,C=CCOc1ccc(C#N)cc1
16,109 to 111 °C,Cn1nc(Oc2ccc(N)c(N)c2)cc1C(F)(F)F
17,42.5 °C,COC(=O)CCCC(=O)c1ccco1
18,124 to 129 °C,Fc1ccc(NC(=S)c2ccccn2)c(F)c1
19,102 °C,COc1ccccc1[C@H](C)C(=O)O
20,90 to 91 °C,COc1ccc(CN2C(=O)CC2CC(=O)O)c(OC)c1 (stereo not given)
21,96 to 97 °C,O=C1NC(=O)C(CCCCCc2ccc(O)cc2)O1 (stereo not given)
22,177 to 179 °C,N#CC1CCCc2c(C(=O)O)cccc21 (stereo not given)
23,146 °C,CC(C)S(=O)(=O)c1cnc(Cl)c(Cl)c1
24,129 to 135 °C,CCN1C(=O)C(C(=O)Nc2cccc(C(=O)Nc3ccccc3)c2)c2cc(C(=O)c3ccccc3)ccc21 (stereo not given)
25,182 to 184 °C,CCCn1cnc(C(N)=O)c1NC(=O)c1ccccc1OCC

row,melting point,SMILES
1,156 to 158 °C,CC(c1ccc(OCC(=O)Nc2ccc(-c3ccc(Cl)cc3)cc2)cc1)N1CCCC1 (stereo not given)
2,136 °C,O=C(Nc1nccs1)c1c(C(F)(F)F)nc(-c2cccs2)c(-c2ccccc2)c1O
3,148 to 149 °C,CCOC(=O)c1cnn(-c2ccc(CBr)cc2)n1
4,116 to 118 °C,Cc1ccc(CNc2nc(OCC(F)(F)F)nc(Oc3cccc(C(F)(F)F)c3)n2)o1
5,116 °C,CN1C(=O)CC[C@]2(C)c3ccc(C(=O)c4ccccc4)cc3CC[C@@H]12
6,129 to 130 °C,COC(=O)C1N2C(=O)C(NC(=O)COc3ccccc3)C2SCC1(C)Nc1ccccc1 (stereo not given)
7,267 to 269 °C,CCCCNC1=NS(=O)(=O)c2ccc(Cl)cc2N1
8,112 °C,O=C(O)CCCCCCCCCCCCCCCCCCC(=O)n1nnc2ccccc21
9,81 to 83 °C,COC(=O)c1c(OC)ccc(OC)c1N=CN(C)C
10,196 °C,OC1CSC(Oc2cncc(-c3ccc(N4CCCCC4)cc3)c2)C(O)C1O (stereo not given)
11,256 to 257 °C,CCc1nnc(NC(=O)C2c3ccccc3Oc3ccccc32)o1
12,147 °C,COc1ccc(C2=NN(Cc3ccc(C(=O)NC4CCCC4)cc3)C(=O)CC2)cc1OC
13,144 to 148 °C,Cn1nc(-c2c(F)cccc2Cl)nc1-c1ccc([N+](=O)[O-])cc1Cl
14,78 to 80 °C,O=C(CC(=O)C(F)F)c1cccs1
15,103 to 104 °C,CCOC(=O)CCCCCn1c(=O)[nH]c2ccccc2c1=O
16,221 to 223 °C,CC(C)=Nc1c(-c2ccccc2)[nH]c(C)c1C(N)=O
17,159 to 162 °C,CCc1ccc2oc(C(=O)Nc3ccc(-c4ccc(S(=O)(=O)NC(C(=O)O)C(C)C)cc4)cc3)c(C)c2c1OC(C)C (stereo not given)
18,89 to 95 °C,CCNC(=O)c1ccc(C2(C(N)=O)CN(C(=O)OC(C)(C)C)CCc3c2cc(CC)c(CC)c3Cl)cc1 (stereo not given)
19,> 215 °C,CCOC(=O)CCc1c(O)ccc2c(=O)c3cc(C(=O)OC)ccc3oc12
20,192 to 194 °C,CCc1cn2c(n1)Cc1cc3c(cc1C(c1ccc(N)cc1)=N2)OCO3
21,253 to 255 °C,O=c1[nH]c2ccc(C(F)(F)F)cc2c(-c2cc(Cl)ccc2O)c1CCO
22,173 to 177 °C,CCOc1ccnc(CSc2nc3ccc(C(F)(F)F)cc3[nH]2)c1C
23,79 to 82 °C,CC(C)(C)OC(=O)NCCc1cccc(O)c1
24,65 to 67 °C,O=C(Cl)N1CCCCCCCCCCCNC1=O
25,206 to 207 °C,COc1cc(Oc2ccc(S(C)(=O)=O)nc2)cc2cc(C3=NCC(CC(=O)N(C)C)S3)[nH]c12 (stereo not given)

row,SMILES,melting point
1,CN1CCN(c2cc(N)ccc2Br)CC1,120 to 122 °C
2,C[C@@H]1N=C(c2ccccc2)c2cc(C#CCCCC(=O)NO)ccc2N(C)C1=O,101 to 103 °C
3,C=C1CC2(CC)C(=O)CC(OC(C)=O)C2C2CCC3=CC(=O)CCC3C12 (stereo not given),176 °C
4,[O-][N+]1=C(c2ccccc2)c2cc(C(F)(F)F)ccc2-n2c(CBr)nnc2C1,185 to 210 °C
5,CCCCC1(N(C)C)CC=C(c2c[nH]c3ncccc23)CC1 (stereo not given),142 to 145 °C
